According to PMC11249646, “Small-Molecule Disruptors of the Interaction between Calcium- and Integrin-Binding Protein 1 and Integrin αIIbβ3 as Novel Antiplatelet Agents” (ACS Pharmacology & Translational Science, 2024):

Biological target: T1, CIB1 and αIIb interaction (CIB1-GST : F-αIIb peptide) (Homo sapiens, UniProt Q99828)
T1 construct: made in house; host or cells: BL-21 plus RIL cells (E. coli)
T1 sequence (Q99828 1-191): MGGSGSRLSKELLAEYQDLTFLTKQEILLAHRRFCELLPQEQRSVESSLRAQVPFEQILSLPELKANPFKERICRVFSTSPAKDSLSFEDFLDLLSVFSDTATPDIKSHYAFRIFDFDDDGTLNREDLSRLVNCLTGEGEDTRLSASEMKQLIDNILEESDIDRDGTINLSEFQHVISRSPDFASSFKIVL
Experiment: FP assay, 1536-well qHTS format (primary and confirmatory screen)
Type: binding
Conditions: Table S3, confirmatory screen, YES/NO call

Row | Structure (SMILES) | Confirm? (confirmatory screen)
1 | O=C(O)C(F)(F)F.O=S(=O)(NCc1nccs1)c1ccc(Nc2nc(-c3ccccc3)cs2)cc1 [NCGC00262383-01] | YES
2 | NS(=O)(=O)c1ccc(Nc2nc(-c3ccccc3)cs2)cc1.O=C(O)C(F)(F)F [NCGC00262411-01] | YES
3 | CNc1oc(-c2c[nH]c3ccccc23)nc1C#N.O=C(O)C(F)(F)F [NCGC00262511-01] | YES
4 | Cn1cc(-c2[nH]c3cc(NC(=O)[C@H](N)C4CCCCC4)cc4c3c2C=NNC4=O)cn1 [NCGC00263132-02] | YES
5 | COc1cccc(CN(C)c2ccc(S(=O)(=O)Nc3nccs3)cc2)c1O.O=C(O)C(F)(F)F [NCGC00318978-01] | YES

Same assay, conditions: Table S3, confirmatory screen, qHTS curve class; a negative sign marks inhibitory curves

Row | Structure (SMILES) | Curve Class (confirmatory screen)
6 | O=C(O)C(F)(F)F.O=S(=O)(NCc1nccs1)c1ccc(Nc2nc(-c3ccccc3)cs2)cc1 [NCGC00262383-01] | -2.2
7 | NS(=O)(=O)c1ccc(Nc2nc(-c3ccccc3)cs2)cc1.O=C(O)C(F)(F)F [NCGC00262411-01] | -2.2
8 | CNc1oc(-c2c[nH]c3ccccc23)nc1C#N.O=C(O)C(F)(F)F [NCGC00262511-01] | -3
9 | Cn1cc(-c2[nH]c3cc(NC(=O)[C@H](N)C4CCCCC4)cc4c3c2C=NNC4=O)cn1 [NCGC00263132-02] | -2.2
10 | COc1cccc(CN(C)c2ccc(S(=O)(=O)Nc3nccs3)cc2)c1O.O=C(O)C(F)(F)F [NCGC00318978-01] | -2.4

Same assay, conditions: Table S3, confirmatory screen; negative = inhibition

Row | Structure (SMILES) | Efficacy (%) (confirmatory screen)
11 | O=C(O)C(F)(F)F.O=S(=O)(NCc1nccs1)c1ccc(Nc2nc(-c3ccccc3)cs2)cc1 [NCGC00262383-01] | -80
12 | NS(=O)(=O)c1ccc(Nc2nc(-c3ccccc3)cs2)cc1.O=C(O)C(F)(F)F [NCGC00262411-01] | -84
13 | CNc1oc(-c2c[nH]c3ccccc23)nc1C#N.O=C(O)C(F)(F)F [NCGC00262511-01] | -55
14 | Cn1cc(-c2[nH]c3cc(NC(=O)[C@H](N)C4CCCCC4)cc4c3c2C=NNC4=O)cn1 [NCGC00263132-02] | -85
15 | COc1cccc(CN(C)c2ccc(S(=O)(=O)Nc3nccs3)cc2)c1O.O=C(O)C(F)(F)F [NCGC00318978-01] | -35

Same assay, conditions: Table S3, confirmatory screen; read-out: IC50 [μM] (confirmatory screen)

Row | Structure (SMILES) | IC50 [µM]
16 | CNc1oc(-c2c[nH]c3ccccc23)nc1C#N.O=C(O)C(F)(F)F [NCGC00262511-01] | 35.5
17 | Cn1cc(-c2[nH]c3cc(NC(=O)[C@H](N)C4CCCCC4)cc4c3c2C=NNC4=O)cn1 [NCGC00263132-02] | 50.1
18 | COc1cccc(CN(C)c2ccc(S(=O)(=O)Nc3nccs3)cc2)c1O.O=C(O)C(F)(F)F [NCGC00318978-01] | 44.7

Same assay, conditions: qHTS FP screen hits, Table S2; negative = inhibition

Row | Structure (SMILES) | Efficacy (%)
19 | O=C(O)C(F)(F)F.O=S(=O)(NCc1nccs1)c1ccc(Nc2nc(-c3ccccc3)cs2)cc1 [NCGC00262383-01] | -60
20 | COc1cccc(CN(C)c2ccc(S(=O)(=O)Nc3nccs3)cc2)c1O.O=C(O)C(F)(F)F [NCGC00318978-01] | -24

Same assay, conditions: qHTS FP screen hits, Table S2; one class per curve where COUNT > 1; negative sign = inhibitory curve

Row | Structure (SMILES) | Curve Class
21 | O=C(O)C(F)(F)F.O=S(=O)(NCc1nccs1)c1ccc(Nc2nc(-c3ccccc3)cs2)cc1 [NCGC00262383-01] | -2.2

Same assay, conditions: qHTS FP screen hits, Table S2; read-out: IC50

Row | Structure (SMILES) | IC50 [µM]
22 | O=C(O)C(F)(F)F.O=S(=O)(NCc1nccs1)c1ccc(Nc2nc(-c3ccccc3)cs2)cc1 [NCGC00262383-01] | 50.1
23 | COc1cccc(CN(C)c2ccc(S(=O)(=O)Nc3nccs3)cc2)c1O.O=C(O)C(F)(F)F [NCGC00318978-01] | 17.8

Same assay, conditions: qHTS primary screen hits, Table S2; negative = inhibition

Row | Structure (SMILES) | Efficacy (%)
24 | NS(=O)(=O)c1ccc(Nc2nc(-c3ccccc3)cs2)cc1.O=C(O)C(F)(F)F [NCGC00262411-01] | -58
25 | CNc1oc(-c2c[nH]c3ccccc23)nc1C#N.O=C(O)C(F)(F)F [NCGC00262511-01] | -19
26 | Cn1cc(-c2[nH]c3cc(NC(=O)[C@H](N)C4CCCCC4)cc4c3c2C=NNC4=O)cn1 [NCGC00263132-02] | -24

Same assay, conditions: qHTS primary screen hits, Table S2; negative sign = inhibitory curve

Row | Structure (SMILES) | Curve Class
27 | CNc1oc(-c2c[nH]c3ccccc23)nc1C#N.O=C(O)C(F)(F)F [NCGC00262511-01] | -1.4

Same assay, conditions: qHTS primary screen hits, Table S2; negative sign = inhibitory curve; several classes where COUNT > 1

Row | Structure (SMILES) | Curve Class
28 | NS(=O)(=O)c1ccc(Nc2nc(-c3ccccc3)cs2)cc1.O=C(O)C(F)(F)F [NCGC00262411-01] | -2.2
29 | Cn1cc(-c2[nH]c3cc(NC(=O)[C@H](N)C4CCCCC4)cc4c3c2C=NNC4=O)cn1 [NCGC00263132-02] | -1.4

Same assay, conditions: qHTS primary screen hits, Table S2; read-out: IC50

Row | Structure (SMILES) | IC50 [µM]
30 | NS(=O)(=O)c1ccc(Nc2nc(-c3ccccc3)cs2)cc1.O=C(O)C(F)(F)F [NCGC00262411-01] | 50.1
31 | CNc1oc(-c2c[nH]c3ccccc23)nc1C#N.O=C(O)C(F)(F)F [NCGC00262511-01] | 15.8
32 | Cn1cc(-c2[nH]c3cc(NC(=O)[C@H](N)C4CCCCC4)cc4c3c2C=NNC4=O)cn1 [NCGC00263132-02] | 4.2

Biological target: T2, GST-CIB1 : F-scrambled peptide (Homo sapiens, UniProt Q99828)
T2 construct: made in house; host or cells: BL-21 plus RIL cells (E. coli)
T2 sequence (Q99828 1-191): T1 sequence (Q99828 1-191)
Experiment: FP scrambled-peptide counter screen, 1536-well format
Type: binding
Conditions: Table S3, counterscreen, qHTS curve class; a negative sign marks inhibitory curves

Row | Structure (SMILES) | Curve Class (counterscreen)
33 | O=C(O)C(F)(F)F.O=S(=O)(NCc1nccs1)c1ccc(Nc2nc(-c3ccccc3)cs2)cc1 [NCGC00262383-01] | -2.2
34 | NS(=O)(=O)c1ccc(Nc2nc(-c3ccccc3)cs2)cc1.O=C(O)C(F)(F)F [NCGC00262411-01] | -2.1
35 | CNc1oc(-c2c[nH]c3ccccc23)nc1C#N.O=C(O)C(F)(F)F [NCGC00262511-01] | -2.4
36 | Cn1cc(-c2[nH]c3cc(NC(=O)[C@H](N)C4CCCCC4)cc4c3c2C=NNC4=O)cn1 [NCGC00263132-02] | -2.1
37 | COc1cccc(CN(C)c2ccc(S(=O)(=O)Nc3nccs3)cc2)c1O.O=C(O)C(F)(F)F [NCGC00318978-01] | -2.4

Same assay, conditions: Table S3, counterscreen; negative = inhibition

Row | Structure (SMILES) | Efficacy (%) (counterscreen)
38 | O=C(O)C(F)(F)F.O=S(=O)(NCc1nccs1)c1ccc(Nc2nc(-c3ccccc3)cs2)cc1 [NCGC00262383-01] | -83
39 | NS(=O)(=O)c1ccc(Nc2nc(-c3ccccc3)cs2)cc1.O=C(O)C(F)(F)F [NCGC00262411-01] | -98
40 | CNc1oc(-c2c[nH]c3ccccc23)nc1C#N.O=C(O)C(F)(F)F [NCGC00262511-01] | -53
41 | Cn1cc(-c2[nH]c3cc(NC(=O)[C@H](N)C4CCCCC4)cc4c3c2C=NNC4=O)cn1 [NCGC00263132-02] | -107
42 | COc1cccc(CN(C)c2ccc(S(=O)(=O)Nc3nccs3)cc2)c1O.O=C(O)C(F)(F)F [NCGC00318978-01] | -33

Same assay, conditions: Table S3, counterscreen; read-out: IC50 [μM] (counterscreen)

Row | Structure (SMILES) | IC50 [µM]
43 | O=C(O)C(F)(F)F.O=S(=O)(NCc1nccs1)c1ccc(Nc2nc(-c3ccccc3)cs2)cc1 [NCGC00262383-01] | 50.1
44 | NS(=O)(=O)c1ccc(Nc2nc(-c3ccccc3)cs2)cc1.O=C(O)C(F)(F)F [NCGC00262411-01] | 44.7
45 | CNc1oc(-c2c[nH]c3ccccc23)nc1C#N.O=C(O)C(F)(F)F [NCGC00262511-01] | 28.2
46 | Cn1cc(-c2[nH]c3cc(NC(=O)[C@H](N)C4CCCCC4)cc4c3c2C=NNC4=O)cn1 [NCGC00263132-02] | 79.4
47 | COc1cccc(CN(C)c2ccc(S(=O)(=O)Nc3nccs3)cc2)c1O.O=C(O)C(F)(F)F [NCGC00318978-01] | 39.8
